From patent US9061026B2, “Oligomer-diarylpiperazine conjugates” (priority 2008, dated 2015)
Read-outs that look alike come from different tables or passages of the source.

What was measured:
[1] = target: Opiate Receptor, delta (OP1, DOP) (Homo sapiens, UniProt P41143); experiment: Radioligand competition binding, Opiate Receptor, delta (OP1, DOP), [3H]-naltrindole, CHO cells
[2] = target: T1, Opiate Receptor, kappa (OP2, KOP) (Homo sapiens, UniProt P41145); experiment: biochemical; type: binding
T1 construct: expressed in transfected cells; host or cells: HEK-293 cells, membrane preparation

[3] = target: Opiate Receptor, μ (OP3, MOP) (Homo sapiens, UniProt P35372); experiment: Radioligand competition binding, Opiate Receptor, μ (OP3, MOP), [3H]-diprenorphine, CHO-K1 cells
Opiate δ = Opiate δ (Homo sapiens, UniProt P41143); experiment: Opiate δ receptor binding (Table 1); conditions: for Ki: Table 1; for Fold change: Opiate δ Ki relative to ±BW373U86 (=1)
Delta Opioid Receptor = Delta Opioid Receptor Binding, forebrain, representative data set; conditions: radioligand [3H]Enkephalin, DPDPE, read-out: Kd (binding affinity)
Protocol: Binding characteristics for various receptors including, but not limited to, delta, kappa, and mu opioid receptors are determined.

T1 sequence (P41145 whole entry): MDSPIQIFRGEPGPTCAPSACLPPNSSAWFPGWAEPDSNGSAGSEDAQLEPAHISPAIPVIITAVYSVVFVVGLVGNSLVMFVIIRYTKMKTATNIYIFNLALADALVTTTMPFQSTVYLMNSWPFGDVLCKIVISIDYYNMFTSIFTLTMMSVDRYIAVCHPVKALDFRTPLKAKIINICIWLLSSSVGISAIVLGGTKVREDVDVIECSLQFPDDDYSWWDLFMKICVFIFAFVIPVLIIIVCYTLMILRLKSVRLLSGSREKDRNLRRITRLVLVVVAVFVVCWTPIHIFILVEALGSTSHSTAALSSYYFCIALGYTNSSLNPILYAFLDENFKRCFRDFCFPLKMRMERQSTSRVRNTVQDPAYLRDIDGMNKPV
Sequence of Opiate Receptor, delta (OP1, DOP) (P41143 whole entry): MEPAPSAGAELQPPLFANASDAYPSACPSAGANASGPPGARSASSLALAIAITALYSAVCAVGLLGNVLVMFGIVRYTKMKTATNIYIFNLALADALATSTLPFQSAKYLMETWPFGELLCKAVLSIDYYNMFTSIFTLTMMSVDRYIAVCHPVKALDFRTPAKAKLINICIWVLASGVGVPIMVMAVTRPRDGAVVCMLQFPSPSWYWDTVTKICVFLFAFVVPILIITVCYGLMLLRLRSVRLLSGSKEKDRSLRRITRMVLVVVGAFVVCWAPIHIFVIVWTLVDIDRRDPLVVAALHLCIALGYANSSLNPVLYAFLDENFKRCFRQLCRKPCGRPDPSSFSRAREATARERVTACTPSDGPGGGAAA
Sequence of Opiate δ (P41143 whole entry): as above
Sequence of Opiate Receptor, μ (OP3, MOP) (P35372 whole entry): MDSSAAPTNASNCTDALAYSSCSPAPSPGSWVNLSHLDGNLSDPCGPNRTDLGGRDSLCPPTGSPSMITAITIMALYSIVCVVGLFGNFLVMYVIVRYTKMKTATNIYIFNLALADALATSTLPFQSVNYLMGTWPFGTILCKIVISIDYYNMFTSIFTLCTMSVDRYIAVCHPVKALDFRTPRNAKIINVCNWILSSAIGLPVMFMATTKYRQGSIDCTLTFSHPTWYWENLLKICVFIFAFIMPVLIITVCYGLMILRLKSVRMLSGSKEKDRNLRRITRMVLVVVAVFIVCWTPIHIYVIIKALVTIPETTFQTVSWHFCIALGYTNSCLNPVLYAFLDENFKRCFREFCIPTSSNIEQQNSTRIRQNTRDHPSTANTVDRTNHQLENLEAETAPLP

For `Br.Br.C=CCN1CC(C)N(C(c2ccc(C(=O)N(CC)CC)cc2)c2cccc(O)c2)CC1C` (racemic) [(+/−) BW373U86 dihydrobromide, reference compound], the IC50 ([1]; read-out: IC50) was 3.26 nM, the Ki ([1]; read-out: Ki) was 1.15 nM and the nH [2] was 0.92. For the same molecule, the IC50 ([2]; read-out: IC50) was 556 nM, the Ki ([2]; read-out: Ki) was 223 nM and the nH [3] was 0.92. The IC50 ([3]; read-out: IC50) was 659 nM and the Ki ([3]; read-out: Ki) was 268 nM.

`CCN(CC)C(=O)c1ccc([C@H](c2cccc(O)c2)N2C[C@@H](C)N(CCOCCOCCOC)C[C@@H]2C)cc1` (racemic) [mPEG3-N-(+/−)-BW373U86, (±)-4-[(αR)-α-((2S,5R)-4-methoxy(triethylene glycol)-2,5-dimethyl-1-piperazinyl)-3-hydroxybenzyl]-N,N-diethylbenzamide] gave an IC50 ([1]; read-out: IC50) of 764 nM, a Ki ([1]; read-out: Ki) of 269 nM and an IC50 ([3]; read-out: IC50) of 9370 nM. It also gave a Ki ([3]; read-out: Ki) of 3810 nM.

In the case of `C=CCN1C[C@H](C)N([C@H](c2ccc(C(=O)N(CC)CC)cc2)c2cccc(OCCOCCOCCOC)c2)C[C@H]1C` (racemic) [mPEG-3 ± BW373U86, (±)-4-[(αR)-α-((2S,5R)-4-Allyl-2,5-dimethyl-1-piperazinyl)-3-O-methoxy(triethylene glycol)benzyl]-N,N-diethylbenzamid], the Ki (Opiate δ; read-out: Opiate δ, Ki) is reported as ~415 nM.

`C=CCN1C[C@H](C)N([C@H](c2ccc(C(=O)N(CC)CC)cc2)c2cccc(OCCOCCOCCOCCOCCOCCOCCOC)c2)C[C@H]1C` (racemic) [mPEG-7 ± BW373U86, (±)-4-[(αR)-α-((2S,5R)-4-Allyl-2,5-dimethyl-1-piperazinyl)-3-O-methoxy(heptaethylene glycol)benzyl]-N,N-diethylbenzamid] showed a Fold change (Opiate δ) of ~298 and a Ki (Opiate δ; read-out: Opiate δ, Ki) of ~1330 nM.

Molecule `C=CCN1C[C@H](C)N([C@H](c2ccc(C(=O)N(CC)CC)cc2)c2cccc(O)c2)C[C@H]1C` (racemic) [±BW373U86, (±)-4-[(αR)-α-((2S,5R)-4-Allyl-2,5-dimethyl-1-piperazinyl)-3-hydroxbenzyl]-N,N-diethylbenzamide, reference compound] has a Ki (Opiate δ; Opiate δ, Ki (nM)) of 0.36 nM.

`C=CCN1C[C@H](C)N([C@H](c2ccc(C(=O)N(CC)CC)cc2)c2cccc(O)c2)C[C@H]1C` [(+) BW373U86, (+)-4-[(αR)-α-((2S,5R)-4-Allyl-2,5-dimethyl-1-piperazinyl)-3-hydroxbenzyl]-N,N-diethylbenzamide, reference compound] gave an IC50 [1] of 1 nM, a Ki [1] of 0.354 nM and a nH [1] of 0.91. It also gave an IC50 [2] of 223 nM, a Ki [2] of 89.2 nM and a nH [2] of 0.78. It also gave an IC50 [3] of 309 nM, a Ki [3] of 126 nM and a nH [3] of 0.83.

`CCN(CC)C(=O)c1ccc(C(c2cccc(O)c2)N2CCN(Cc3ccccc3)CC2)cc1` (centres unmarked) [N-benzyl-deallyl-demethyl-BW373U86, 4-[(4-Benzyl-1-piperazinyl)-3-hydroxbenzyl]-N,N-diethylbenzamid] was tested, and the IC50 [1] was 1.33 nM, the Ki [1] was 0.47 nM and the nH [1] was 0.99. For the same molecule, the IC50 [2] was 2370 nM, the Ki [2] was 946 nM and the nH [2] was 0.95. For the same molecule, the IC50 [3] was 2750 nM, the Ki [3] was 1110 nM and the nH [3] was 0.90.

`C=CCN1CCN(C(c2ccc(C(=O)N(CC)CC)cc2)c2cccc(O)c2)CC1` (centres unmarked) [demethyl-BW373U86, 4-[(4-Allyl-1-piperazinyl)-3-hydroxbenzyl]-N,N-diethylbenzamid] was tested, and the nH [1] was 1.10, the IC50 ([1]; read-out: IC50) was 7.09 nM and the Ki ([1]; read-out: Ki) was 2.5 nM. For the same molecule, the nH [2] was 0.87, the IC50 ([2]; read-out: IC50) was 1000 nM and the Ki ([2]; read-out: Ki) was 401 nM. It also gave a nH [3] of 1.02, an IC50 ([3]; read-out: IC50) of 11000 nM and a Ki ([3]; read-out: Ki) of 4450 nM.

Work on `CCN(CC)C(=O)c1ccc(C(c2cccc(OCCOCCOCCOC)c2)N2CCN(Cc3ccccc3)CC2)cc1` (centres unmarked) [mPEG3-N-benzyl-deallyl-demethyl-BW373U86, 4-[(4-Benzyl-1-piperazinyl)-3-O-methoxy(triethyleneglycol)benzyl]-N,N-diethylbenzamide] yielded an IC50 [1] of 212 nM, a Ki [1] of 74.7 nM and a nH [1] of 1.50.

In the case of `C=CCN1CCN(C(c2ccc(C(=O)N(CC)CC)cc2)c2cccc(OCCOCCOCCOC)c2)CC1` (centres unmarked) [mPEG3-demethyl-BW373U86, 4-[(4-Allyl-1-piperazinyl)-3-O-methoxy(triethyleneglycol)benzy]-N,N-diethylbenzamid], the IC50 ([1]; read-out: IC50) is reported as 6050 nM and the Ki ([1]; read-out: Ki) is reported as 2130 nM.

For `CCN(CC)C(=O)c1ccc(C(c2cccc(OCCOCCOCCOCCOCCOCCOCCOC)c2)N2CCN(Cc3ccccc3)CC2)cc1` (centres unmarked) [mPEG7-N-benzyl-deallyl-demethyl-BW373U86, 4-[(4-Benzyl-1-piperazinyl)-3-O-methoxy(heptaethyleneglycol)benzyl]-N,N-diethylbenzamid], the IC50 [1] was 106 nM, the Ki [1] was 37.4 nM and the nH [1] was 1.08.

With `C=CCN1CCN(C(c2ccc(C(=O)N(CC)CC)cc2)c2cccc(OCCOCCOCCOCCOCCOCCOCCOC)c2)CC1` (centres unmarked) [mPEG7-demethyl-BW373U86, 4-[(4-Allyl-1-piperazinyl)-3-O-methoxy(heptaethylene glycol)benzyl]-N,N-diethylbenzamide] the IC50 ([1]; read-out: IC50) was 3470 nM and the Ki ([1]; read-out: Ki) was 1220 nM.

Work on `C=CCN1C[C@H](C)N([C@H](c2ccc(C(=O)N(CC)CC)cc2)c2cccc(OCCOCCOCCOC)c2)C[C@H]1C` [mPEG-3 + BW373U86, (+)-4-[(αR)-α-((2S,5R)-4-Allyl-2,5-dimethyl-1-piperazinyl)-3-O-methoxy(triethylene glycol)benzyl]-N,N-diethylbenzamid] yielded an IC50 ([1]; read-out: IC50) of 723 nM, a Ki ([1]; read-out: Ki) of 255 nM and a Ki (Opiate δ; read-out: Opiate δ, Ki) of 491 nM.

Work on `C=CCN1C[C@H](C)N([C@H](c2ccc(C(=O)N(CC)CC)cc2)c2cccc(OCCOCCOCCOCCOCCOCCOCCOC)c2)C[C@H]1C` [mPEG-7 + BW373U86, (+)-4-[(αR)-α-((2S,5R)-4-Allyl-2,5-dimethyl-1-piperazinyl)-3-O-methoxy(heptaethylene glycol)benzyl]-N,N-diethylbenzamid] yielded a Fold change (Opiate δ) of 242.7 and a Ki (Opiate δ; read-out: Opiate δ, Ki) of 864 nM.

Molecule DPDPE [[3H]Enkephalin, DPDPE] has a Kd (Delta Opioid Receptor) of 2.1 nM.
